17 molecules from US20220056019A1, “FARNESOID X RECEPTOR AGONISTS AND USES THEREOF” (Metacrine, Inc., priority 2018, published 2022) can be followed below.

This experiment addresses T1, hFXR (Homo sapiens, UniProt Q96RI1).
T1 construct: expressed in transfected cells; host or cells: CV-1 cells
T1 sequence (Q96RI1 1-486): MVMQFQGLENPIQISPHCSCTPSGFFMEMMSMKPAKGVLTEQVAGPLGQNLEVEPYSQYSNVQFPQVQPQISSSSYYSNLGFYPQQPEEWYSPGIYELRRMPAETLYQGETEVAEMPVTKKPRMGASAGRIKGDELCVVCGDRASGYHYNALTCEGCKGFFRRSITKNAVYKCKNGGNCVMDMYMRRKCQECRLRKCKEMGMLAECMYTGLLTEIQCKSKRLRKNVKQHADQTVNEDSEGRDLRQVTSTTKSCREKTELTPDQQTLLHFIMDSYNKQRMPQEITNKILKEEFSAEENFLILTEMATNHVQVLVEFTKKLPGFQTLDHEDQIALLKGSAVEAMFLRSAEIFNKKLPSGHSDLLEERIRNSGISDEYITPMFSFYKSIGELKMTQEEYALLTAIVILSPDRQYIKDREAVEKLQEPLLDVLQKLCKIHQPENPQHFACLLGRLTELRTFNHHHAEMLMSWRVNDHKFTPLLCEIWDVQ
T1 sequence (P19793 1-462 partner): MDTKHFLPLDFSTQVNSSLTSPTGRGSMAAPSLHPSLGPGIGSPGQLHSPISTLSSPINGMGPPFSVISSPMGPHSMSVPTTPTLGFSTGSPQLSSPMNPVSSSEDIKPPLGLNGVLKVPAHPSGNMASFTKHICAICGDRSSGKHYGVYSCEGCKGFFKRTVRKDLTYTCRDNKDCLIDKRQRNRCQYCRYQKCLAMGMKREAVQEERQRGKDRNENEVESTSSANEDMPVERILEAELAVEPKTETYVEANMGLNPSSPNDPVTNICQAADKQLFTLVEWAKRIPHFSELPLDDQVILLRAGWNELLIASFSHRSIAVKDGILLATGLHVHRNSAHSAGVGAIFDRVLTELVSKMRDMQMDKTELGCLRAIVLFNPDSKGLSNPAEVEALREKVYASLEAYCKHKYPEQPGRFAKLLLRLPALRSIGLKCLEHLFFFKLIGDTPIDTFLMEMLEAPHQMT
Briefly: In Vitro FXR Assay (TK): TK-ECRE-luc reporter in transfected CV-1 cells. The experiment is classed as cell-based. Conditions: 18 hrs incubation, luminescence. The protocol: Example B-1: In Vitro FXR Assay (TK)
CV-1 cells were seeded at a density of 2,000,000 cells in a T175 flask with DMEM+10% charcoal double-stripped FBS and incubated at 37° C. in 5% CO2 for 18 h (O/N).
After 18 h of incubation, the medium in the T175 flask was changed with fresh DMEM+10% charcoal super-stripped serum. In a polypropylene tube, 2500 μL OptiMEM (Life Technologies, Cat #31985-062) was combined with expression plasmids for hFXR, hRXR, TK-ECRE-luc and pCMX-YFP. The tube was then briefly vortexed and incubated at room temperature for 5 minutes. Transfection reagent (X-tremeGENE HP from Roche, Cat #06 366 236 001) was added to the OptiMEM/plasmid mixture vortexed and incubated at room temperature for 20 minutes. Following incubation, the transfection reagent/DNA mixture complex was added to cells in the T175 flask and the cells were incubated at 37° C. in 5% CO2 for 18 h (O/N).
Compounds were serially diluted in DMSO and added to transfected CV-1 cells. The cells were then incubated for 18 hrs. The next day cells were lysed and examined for luminescence.
As to `CC(C)n1cc(-c2ccnc(N(CC34CCC(C5CCC(C)(C)CC5)(CC3)CC4)C(=O)[C@H]3CC[C@H](OC(=O)N4CC(O)C4)CC3)c2)cn1` [Compound 26.19, 4-(((4-(4,4-Dimethylcyclohexyl)bicyclo[2.2.2]octan-1-yl)methyl)(4-(1-isopropyl-1H-pyrazol-4-yl)pyridin-2-yl)carbamoyl)cyclohexyl trans-3-hydroxyazetidine-1-carboxylate], the EC50 was 50 to 1000 nM.
The result for `COc1ccc(C23CCC(CN(c4ccnc(-c5cnn(C(C)C)c5)c4)C(=O)[C@H]4CC[C@H](OC(=O)N5CC(O)C5)CC4)(CC2)CC3)cc1C` [Compound 4.59, 4-((2-(1-Isopropyl-1H-pyrazol-4-yl)pyridin-4-yl) ((4-(4-methoxy-3-methylphenyl)bicyclo [2.2.2]octan-1-yl)methyl)carbamoyl)(trans-cyclohexyl) 3-hydroxyazetidine-1-carboxylate] reads no more than 50 nM; that for `COc1ccc([C@H]2CC[C@H](CN(c3cccc(-c4cnn(C(C)C)c4)c3)C(=O)[C@H]3CC[C@H](NC(=O)C4CCCCC4)CC3)CC2)cc1C` [Compound 10.01, trans-4-(Cyclohexanecarboxamido)-N-(3-(1-isopropyl-1H-pyrazol-4-yl)phenyl)-N-((trans-4-(4-methoxy-3-methylphenyl)cyclohexyl)methyl) cyclohexanecarboxamide], 50 to 1000 nM.
In turn, `COc1ccc(C23CCC(CN(c4cc(-c5cnn(C(C)C)c5)ccn4)C(=O)[C@H]4CC[C@H](OC(=O)NC(C)C)CC4)(CC2)CC3)cc1C` [Compound 4.04, 4-((4-(1-Isopropyl-1H-pyrazol-4-yl)pyridin-2-yl)((4-(4-methoxy-3-methylphenyl)bicyclo [2.2.2]octan-1-yl)methyl)carbamoyl)cyclohexyl trans-isopropylcarbamate] returned an EC50 of no more than 50 nM.
Take `COc1ccc([C@H]2CC[C@H](CN(c3cccc(-c4cnn(C(C)C)c4)c3)C(=O)[C@H]3CC[C@H](CN)CC3)CC2)cc1C` [Compound 11, (trans)-4-(Aminomethyl)-N-(3-(1-isopropyl-1H-pyrazol-4-yl)phenyl)-N-(((trans)-4-(4-methoxy-3-methylphenyl)cyclohexyl)methyl)cyclohexanecarboxamide]: the EC50 lay in the range of 1000 to 10000 nM.
With `COc1ccc([C@H]2CC[C@H](CN(c3cccc(-c4cnn(C(C)C)c4)c3)C(=O)[C@H]3CC[C@H](NC(=O)C4CC(=O)C4)CC3)CC2)cc1C` [Compound 14.01, trans-N-(3-(1-Isopropyl-1H-pyrazol-4-yl)phenyl)-N-((trans-4-(4-methoxy-3-methylphenyl)cyclohexyl)methyl)-4-(3-oxocyclobutanecarboxamido)cyclo-hexanecarboxamide], the EC50 was no more than 50 nM.
`COCC(=O)N[C@H]1CC[C@H](C(=O)N(CC23CCC(c4ccc(OC)c(C)c4)(CC2)CC3)c2cc(-c3cnn(C(C)C)c3)ccn2)CC1` [Compound 9.01, trans-N-(4-(1-Isopropyl-1H-pyrazol-4-yl)pyridin-2-yl)-N-((4-(4-methoxy-3-methylphenyl)bicyclo[2.2.2]octan-1-yl)methyl)-4-(2-methoxyacetamido)cyclohexanecar-boxamide] registered an EC50 of no more than 50 nM.
Next, `COc1ccc(C23CCC(CN(c4cc(-c5cnn(C(C)C)c5)ccn4)C(=O)[C@H]4CC[C@H](OC(=O)NC(C)(C)CO)CC4)(CC2)CC3)cc1C` [Compound 4.46, 4-((4-(1-Isopropyl-1H-pyrazol-4-yl)pyridin-2-yl) ((4-(4-methoxy-3-methylphenyl)bicyclo [2.2.2]octan-1-yl)methyl)carbamoyl)cyclohexyl trans-(1-hydroxy-2-methylpropan-2-yl) carbamate]: no more than 50 nM; `COc1ccc(C23CCC(CN(c4cc(-c5coc(C6CC6)n5)ccn4)C(=O)[C@H]4CC[C@H](NC(C)=O)CC4)(CC2)CC3)cc1C` [Compound 9.09, (trans)-4-Acetamido-N-(4-(2-cyclopropyloxazol-4-yl)pyridin-2-yl)-N-((4-(4-methoxy-3-methylphenyl)bicyclo[2.2.2]octan-1-yl)methyl)cyclohexanecarboxamide]: no more than 50 nM; `COc1ccc([C@H]2CC[C@H](CN(c3cc(-c4cnc(C(C)C)o4)ccn3)C(=O)[C@H]3CC[C@H](OC(=O)N4CC(O)C4)CC3)CC2)cc1C` [Compound 2.37, trans-4-((4-(2-Isopropyloxazol-5-yl)pyridin-2-yl)((trans-4-(4-methoxy-3-methylphenyl)cyclohexyl)methyl)carbamoyl)cyclohexyl 3-hydroxyazetidine-1-carboxylate]: no more than 50 nM.
For the molecule `COc1ccc(C23CCC(CN(c4cc(-c5cnn(C(C)C)c5)ccn4)C(=O)[C@H]4CC[C@H](OC(=O)NCCCO)CC4)(CC2)CC3)cc1C` [Compound 4.07, 4-((4-(1-Isopropyl-1H-pyrazol-4-yl)pyridin-2-yl)((4-(4-methoxy-3-methylphenyl)bicyclo [2.2.2]octan-1-yl)methyl)carbamoyl)cyclohexyl (3-hydroxypropyl)trans-carbamate], the EC50 was no more than 50 nM.
In turn, `COc1ccc(C23CCC(CN(c4cc(-c5cnn(C(C)C)c5)ncn4)C(=O)[C@H]4CC[C@H](OC(=O)N5CC(C#N)C5)CC4)(CC2)CC3)cc1C` [Compound 23.22, 4-((6-(1-Isopropyl-1H-pyrazol-4-yl)pyrimidin-4-yl)((4-(4-methoxy-3-methylphenyl)bi-cyclo[2.2.2]octan-1-yl)methyl)carbamoyl(trans-cyclohexyl) 3-cyanoazetidine-1-carboxylate] displayed an EC50 of 50 to 1000 nM.
`COc1ccc(C23CCC(CN(c4cc(-c5cnn(C(C)C)c5)ccn4)C(=O)[C@H]4CC[C@H](OC(=O)N5CCC5)CC4)(CC2)CC3)cc1C` [Compound 4.52, 4-((4-(1-Isopropyl-1H-pyrazol-4-yl)pyridin-2-yl) ((4-(4-methoxy-3-methylphenyl)bicyclo [2.2.2]octan-1-yl)methyl)carbamoyl)cyclohexyl trans-azetidine-1-carboxylate] gave an EC50 of no more than 50 nM.
For the molecule `COc1c(C)cc(C23CCC(CN(c4cc(-c5cnn(C(C)C)c5)ccn4)C(=O)[C@H]4CC[C@H](OC(=O)N5CC(O)C5)CC4)(CC2)CC3)cc1F` [Compound 26.05, 4-(((4-(3-Fluoro-4-methoxy-5-methylphenyl)bicyclo[2.2.2]octan-1-yl)methyl)(4-(1-isopropyl-1H-pyrazol-4-yl)pyridin-2-yl)carbamoyl)cyclohexyl trans-3-hydroxyazetidine-1-carboxylate], the EC50 is no more than 50 nM.
The molecule `COc1ccc([C@H]2CC[C@H](CN(c3cccc(-c4coc(C5CC5)n4)c3)C(=O)[C@H]3CC[C@H](C(C)(C)O)CC3)CC2)nc1C` [Compound 19, trans-N-(3-(2-Cyclopropyloxazol-4-yl)phenyl)-4-(2-hydroxypropan-2-yl)-N-((trans-4-(5-methoxy-6-methylpyridin-2-yl)cyclohexyl)methyl)cyclohexanecar-boxamide] yielded an EC50 of no more than 50 nM.
Molecule `COc1ccc(C23CCC(CN(c4cc(-c5cnn(C(C)C)c5)ncn4)C(=O)[C@H]4CC[C@H](OC(=O)NCCCO)CC4)(CC2)CC3)cc1C` [Compound 23.19, 4-((6-(1-Isopropyl-1H-pyrazol-4-yl)pyrimidin-4-yl)((4-(4-methoxy-3-methylphenyl)bi-cyclo[2.2.2]octan-1-yl)methyl)carbamoyl)(trans-cyclohexyl) (3-hydroxypropyl)carbamate] showed an EC50 of no more than 50 nM.
Turning to `COc1ccc([C@H]2CC[C@H](CN(c3cc(-c4cnc(C(C)C)s4)ccn3)C(=O)[C@H]3CC[C@H](OC(=O)NC(C)C)CC3)CC2)cc1C` [Compound 2.47, trans-4-((4-(2-Isopropylthiazol-5-yl)pyridin-2-yl)((trans-4-(4-methoxy-3-methylphenyl)cyclohexyl)methyl)carbamoyl)cyclohexyl isopropylcarbamate], the EC50 was no more than 50 nM.

As a reminder, the EC50 is the concentration that produces a half-maximal response. Low readings indicate a more potent agent, high ones a less potent agent.
